Data on two compounds can be found in patent US8592172B2, “Bioluminescent assays using cyanobenzothiazole compounds” (Promega Corporation, priority 2010, dated 2013).

For data set [1], the system named is UGT activity in human liver microsomes (HLM). As to the kind of experiment: Inhibition of UGT activity in human liver microsomes, compound 3138 as substrate. Format: biochemical. The conditions noted are these: 50 μM compound 3138, 0.1 mg/mL HLM, 15 minutes at 37° C.; read-out: IC50 for HLM utilization of compound 3138. Here is the method:
To assess the ability of these compounds to inhibit UGT activity in HLM, reactions were set up as follows. […] Sulfinpyrazone, quinidine, and androsterone were used at a final concentration of 0.5 mM. 1-Naphthol, scopoletin, umbelliferne, and 7-hydroxy-4-trifluoromethyl coumarin were used at a final concentration of 1 mM. […] Valproate was used at a final concentration of 10 mM. All reactions were compared to their corresponding vehicle control sample containing either water, DMSO, or ethanol.
Background: Liver microsomes are a subcellular fraction often used to study metabolism.

For data set [2], the system named is UGT isozymes in human hepatocytes. The conditions noted are these: diclofenac, 15-20 minutes at 37° C.
The subject of a further data set is UGT isozymes. As to conditions: UGT isozymes currently reported in the literature; cited from earlier work.
A further data set concerns the target T1, UGT 1A1 (Homo sapiens, UniProt P22309).
T1 construct: purchased BD Gentest; host or cells: insect cells (microsomes)
T1 sequence (P22309 26-533): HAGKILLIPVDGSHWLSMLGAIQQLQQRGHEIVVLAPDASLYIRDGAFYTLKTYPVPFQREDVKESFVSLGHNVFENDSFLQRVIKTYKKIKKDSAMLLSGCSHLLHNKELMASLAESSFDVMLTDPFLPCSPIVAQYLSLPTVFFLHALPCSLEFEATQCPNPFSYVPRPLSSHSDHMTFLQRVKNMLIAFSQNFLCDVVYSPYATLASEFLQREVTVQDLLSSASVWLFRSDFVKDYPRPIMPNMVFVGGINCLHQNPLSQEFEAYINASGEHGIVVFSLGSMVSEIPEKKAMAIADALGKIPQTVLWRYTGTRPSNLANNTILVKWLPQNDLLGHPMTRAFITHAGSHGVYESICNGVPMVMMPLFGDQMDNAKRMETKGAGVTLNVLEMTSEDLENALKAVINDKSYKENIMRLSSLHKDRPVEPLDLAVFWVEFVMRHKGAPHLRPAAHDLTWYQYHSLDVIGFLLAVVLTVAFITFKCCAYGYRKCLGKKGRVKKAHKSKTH
Briefly: Inhibition of recombinant UGT 1A1 Supersomes, compound 3138 as substrate. The conditions noted are these: 20 μM compound 3138, 0.1 mg/mL Supersomes, 90 minutes at 37° C. Format: biochemical.

Data set [3] relates to CYP1A2. As to the kind of experiment: Multiplex human hepatocyte assay, CYP1A2 detected with compound 3019. As to conditions: human hepatocytes, 100 μM omeprazole 48 hours. Format: cell-based. As for the experimental part:
For detection of CYP3A4, the luciferin acetal derivative, Luciferin-IPA (Luc-IPA), was used with bioluminescence detected using LDR without D-cysteine.
Human cryopreserved hepatocytes (Celsis In Vitro Technologies) were thawed and seeded in hepatocyte culture medium in wells of a collagen-coated, 96-well culture plate at ˜50,000 cells per well and kept at 37° C. in standard cell culture incubator with 5% CO2. […] The plate was then removed from the incubator. Fifty μl from each intact cell supernatant was transferred to two-set wells of a white, 96-well luminometer plate (Costar). To one set of wells, 50 μl of LDR with 4 mM D-cysteine was added, while 50 μl of LDR without D-cysteine was added to the other set.

Data set [4] concerns CYP1A2. As to the kind of experiment: Non-lytic cell-based assay with human hepatocytes, compound 3019. The conditions noted are these: 100 μM omeprazole 48 hours, 3 μM compound 3019. As for the experimental part: Human cryopreserved hepatocytes (Celsis lot RTM) were thawed and seeded in hepatocyte culture medium in wells of a collagen-coated, 96-well culture plate at ˜70,000 cells per well and kept at 37° C. in standard cell culture incubator with 5% CO2. The cells were then treated for 48 hours with 100 μM omeprazole or vehicle control (0.1% dimethylsulfoxide) dissolved in hepatocytes culture medium (n═3 for each treatment, mean values and standard deviations are shown). […] 50 μl of the KH incubation buffer was then removed from each well and transferred to a well of a white, 96-well luminometer plate (Costar) where it was also combined with 50 μl of P450-Glo LDR containing 6.6 mM D-cysteine.

Description for UGT 1A1: Following the UGT enzyme reaction, an equal volume of P450-Glo Luciferin Detection Reagent (LDR) (Promega) containing 15-30 mM D-cysteine-HCl.H2O (Sigma) was added and the plate was mixed and incubated at room temperature, typically for 20-30 minutes. P450-Glo Luciferin Detection Reagent contains a luciferase reaction mixture that includes a recombinant firefly luciferase, ATP and Mg^2+.
After 2 hours at 37° C., 10 μL of 50 mM D-cysteine-HCl.H2O diluted in 200 mM HEPES, pH 8.0 was added to each 40 μL UGT reaction. After 10 minute incubations, 50 μL P450-Glo LDR (Promega) was added to each well, and bioluminescence was measured.
After 90 minutes at 37° C., 40 μL of P450-Glo LDR plus 20 mM D-cysteine was added to each 40 μL reaction and mixed. After 20 minutes at room temperature, bioluminescence was measured on a luminometer.

A word on the IC50: it is the point on the concentration scale where inhibition reaches its midpoint. `O=C(O)Cc1ccccc1Nc1c(Cl)cccc1Cl` [Diclofenac]: the figures for the IC50 (in data set [1]; on UGT 1A1) were 60 µM and 232 µM, respectively. The “inhibition of compound 3138 conversion in hepatocytes” value in data set [2] is listed as “inhibited”. The “Isozymes Modulated” value in the data set on UGT isozymes is “Inhibits most isozymes”.

Regarding `COc1ccc2[nH]c([S+]([O-])Cc3ncc(C)c(OC)c3C)nc2c1` (stereo not shown) [omeprazole], the “induction of CYP1A2 activity” value with CYP1A2 [3] (compound 3019 alone (FIG. 34A)) and with CYP1A2 [3] (compound 3019 in the presence of Luciferin-IPA (FIG. 34C)) was “induction of CYP1A2 activity” in each case. Also, the “change of signal versus vehicle (CYP1A2 induction)” value in the data set with CYP1A2 [4] is “significantly increased”.
